The source of these data is patent US20230265094A1, “RIPK1 INHIBITORS AND METHODS OF USE” (Merck Sharp & Dohme LLC, priority 2020, published 2023).

The experiment deals with T1, RIPK1 (Homo sapiens, UniProt Q13546).
T1 construct: recombinant GST-RIPK1 kinase domain (residues 1-327) enzyme produced from baculovirus-transfected Sf21 cells; host or cells: baculovirus-transfected Sf21 insect cells
T1 sequence (Q13546 1-327): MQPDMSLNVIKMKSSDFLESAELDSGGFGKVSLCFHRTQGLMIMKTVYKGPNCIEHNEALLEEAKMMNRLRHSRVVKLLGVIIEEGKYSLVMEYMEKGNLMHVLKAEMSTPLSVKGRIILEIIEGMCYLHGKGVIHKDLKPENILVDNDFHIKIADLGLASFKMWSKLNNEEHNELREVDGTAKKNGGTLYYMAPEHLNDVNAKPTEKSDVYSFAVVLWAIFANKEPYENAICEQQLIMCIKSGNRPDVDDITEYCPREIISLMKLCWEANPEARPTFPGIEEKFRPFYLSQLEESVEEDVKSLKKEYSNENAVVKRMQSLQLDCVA
The experiment in a line: RIPK1-ADP-Glo enzymatic assay. It is filed as biochemical. Particulars: ADP-Glo luminescent ADP detection; 25 nM GST-RIPK1 kinase domain (residues 1-327), 300 μM ATP, dephosphorylated-MBP substrate; 30 min pre-incubation, 150 min reaction. A digest of the protocol: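 GST-RIPK1 kinase domain (residues 1-327, Sf21-expressed), 25 nM final, pre-incubated 30 min with compound (10-point 1:3 series from 100000 nM), then reacted 150 min with 300 μM ATP and 3 μM dephosphorylated MBP in HEPES pH 7.3 buffer. ADP read by ADP-Glo luminescence; EC50 from four-parameter fit.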

Where a name gives a salt, the structure may show the parent alone.

`C[C@H]1[C@@H](Oc2ccc(F)cc2)CN1C(=O)N1N=CC[C@H]1c1cncc(C#N)c1` [Example 2.25, 5-((S)-1-((2S,3S)-3-(4-fluorophenoxy)-2-methylazetidine-1-carbonyl)-4,5-dihydro-1H-pyrazol-5-yl)nicotinonitrile] yielded a half-maximal effective concentration (EC50) of 12.8 nM.
Consider `C[C@@H]1[C@@H](Oc2ccc(F)cc2)CN1C(=O)N1N=CC[C@H]1c1cc(F)cc(F)c1` [Example 2.26, ((S)-5-(3,5-difluorophenyl)-4,5-dihydro-1H-pyrazol-1-yl)((2R,3S)-3-(4-fluorophenoxy)-2-methylazetidin-1-yl)methanone], for which the response was half-maximal at 7.8 nM (EC50).
Compound `C[C@H]1[C@@H](Oc2ccc(F)cc2)CN1C(=O)N1N=CC[C@H]1c1cc(F)cc(F)c1` [Example 2.27, ((S)-5-(3,5-difluorophenyl)-4,5-dihydro-1H-pyrazol-1-yl)((2S,3S)-3-(4-fluorophenoxy)-2-methylazetidin-1-yl)methanone] had an EC50 of 6.8 nM.
With `C[C@@H]1[C@@H](Oc2ccc(F)cc2)CN1C(=O)N1N=CC[C@H]1c1ccc(Cl)cc1` [Example 2.28, ((S)-5-(4-chlorophenyl)-4,5-dihydro-1H-pyrazol-1-yl)((2R,3S)-3-(4-fluorophenoxy)-2-methylazetidin-1-yl)methanone], the EC50 was 5.9 nM.
With `Cc1ncc([C@@H]2CC=NN2C(=O)N2CC(C)(Oc3ccc(F)cc3)C2)cc1F` [Example 2.30, (S)-(5-(5-fluoro-6-methylpyridin-3-yl)-4,5-dihydro-1H-pyrazol-1-yl)(3-(4-fluorophenoxy)-3-methylazetidin-1-yl)methanone], a half-maximal response (EC50) required 14.2 nM.
In turn, `CC1(Oc2ccc(F)cc2)CN(C(=O)N2N=CC[C@H]2c2cncc(C#N)c2)C1` [Example 2.32, (S)-5-(1-(3-(4-fluorophenoxy)-3-methylazetidine-1-carbonyl)-4,5-dihydro-1H-pyrazol-5-yl)nicotinonitrile] gave an EC50 of 25.5 nM.
In turn, `CC1(Oc2ccc(F)cc2)CN(C(=O)N2N=CC[C@H]2c2cc(F)cc(F)c2)C1` [Example 2.33, (S)-(5-(3,5-difluorophenyl)-4,5-dihydro-1H-pyrazol-1-yl)(3-(4-fluorophenoxy)-3-methylazetidin-1-yl)methanone] gave an EC50 of 19.8 nM.
For `CC1(Oc2ccc(F)cc2)CN(C(=O)N2N=CC[C@H]2c2ccc(Cl)cc2)C1` [Example 2.34, (S)-(5-(4-chlorophenyl)-4,5-dihydro-1H-pyrazol-1-yl)(3-(4-fluorophenoxy)-3-methylazetidin-1-yl)methanone], a half-maximal effect (EC50) was put at 12.7 nM.
`CC1(Oc2ccnc(C#N)c2)CN(C(=O)N2N=CC[C@H]2c2cc(F)cc(F)c2)C1` [Example 2.35, (S)-4-((1-(5-(3,5-difluorophenyl)-4,5-dihydro-1H-pyrazole-1-carbonyl)-3-methylazetidin-3-yl)oxy)picolinonitrile] displayed an EC50 of 24.2 nM.
Turning to `C[C@H]1[C@@H](Oc2ccnc(C#N)c2)CN1C(=O)N1N=CC[C@H]1c1cc(F)cc(F)c1` [Example 2.36, 4-(((25,3S)-1-((S)-5-(3,5-difluorophenyl)-4,5-dihydro-1H-pyrazole-1-carbonyl)-2-methylazetidin-3-yl)oxy)picolinonitrile], the EC50 came to 20.5 nM.
On to `C[C@@H]1[C@@H](Oc2ccnc(C#N)c2)CN1C(=O)N1N=CC[C@H]1c1cc(F)cc(F)c1` [Example 2.37, 4-(((2R,3S)-1-((S)-5-(3,5-difluorophenyl)-4,5-dihydro-1H-pyrazole-1-carbonyl)-2-methylazetidin-3-yl)oxy)picolinonitrile], for which the EC50 amounted to 6.6 nM.
Turning to `C[C@@H]1[C@H](Oc2ccnc(C#N)c2)CN1C(=O)N1N=CC[C@H]1c1cc(F)cc(F)c1` [Example 2.38, 4-(((2R,3R)-1-((S)-5-(3,5-difluorophenyl)-4,5-dihydro-1H-pyrazole-1-carbonyl)-2-methylazetidin-3-yl)oxy)picolinonitrile], the EC50 stood at 85.9 nM.
In turn, `N#Cc1cncc([C@@H]2CC=NN2C(=O)N2CC(Oc3ccc(F)cc3)C2)c1` [Example 2.39, (S)-5-(1-(3-(4-fluorophenoxy)azetidine-1-carbonyl)-4,5-dihydro-1H-pyrazol-5-yl)nicotinonitrile] gave a 50% effective concentration (EC50) of 33.1 nM.
`N#Cc1cc(C(F)(F)C2CN(C(=O)N3N=CC[C@H]3c3cc(F)cc(F)c3)C2)ccn1` [Example 2.41, (S)-4-((1-(5-(3,5-difluorophenyl)-4,5-dihydro-1H-pyrazole-1-carbonyl)azetidin-3-yl)difluoromethyl)picolinonitrile] came in with an EC50 of 22.9 nM.
For `N#Cc1cccc(OC2CN(C(=O)N3N=CC[C@H]3c3cc(F)cc(F)c3)C2)c1` [Example 2.44, (S)-3-((1-(5-(3,5-difluorophenyl)-4,5-dihydro-1H-pyrazole-1-carbonyl)azetidin-3-yl)oxy)benzonitrile], the EC50 amounted to 11.9 nM.
The compound `CCC1(Oc2ccccc2)CN(C(=O)N2N=CC[C@H]2c2cc(F)cc(F)c2)C1` [Example 2.45, (S)-(5-(3,5-difluorophenyl)-4,5-dihydro-1H-pyrazol-1-yl)(3-ethyl-3-phenoxyazetidin-1-yl)methanone] returned a half-maximal effective concentration (EC50) of 57.4 nM.
In the case of `N#Cc1cc(CC2CN(C(=O)N3N=CC[C@H]3c3cc(F)cc(F)c3)C2)ccn1` [Example 2.46, (S)-4-((1-(5-(3,5-difluorophenyl)-4,5-dihydro-1H-pyrazole-1-carbonyl)azetidin-3-yl)methyl)picolinonitrile], a half-maximal effect (EC50) was put at 46.3 nM.
The compound `O=C(N1CC(OC2CCC2)C1)N1N=CC[C@H]1c1cc(F)cc(F)c1` [Example 2.47, (S)-(3-cyclobutoxyazetidin-1-yl)(5-(3,5-difluorophenyl)-4,5-dihydro-1H-pyrazol-1-yl)methanone] had an EC50 of 92.7 nM.
Consider `N#Cc1cc(OC2CN(C(=O)N3N=CC[C@H]3c3cc(F)cc(F)c3)C2)ccn1` [Example 3.1, (S)-4-((1-(5-(3,5-difluorophenyl)-4,5-dihydro-1H-pyrazole-1-carbonyl)azetidin-3-yl)oxy)picolinonitrile, TFA Salt], for which the EC50 was determined as 6.6 nM.
`Cn1c(OC2CN(C(=O)N3N=CC[C@H]3c3cc(F)cc(F)c3)C2)nc2ccccc21` [Example 3.2, (S)-(5-(3,5-difluorophenyl)-4,5-dihydro-1H-pyrazol-1-yl)(3-((1-methyl-1H-benzo[d]imidazol-2-yl)oxy)azetidin-1-yl)methanone, TFA salt] registered an EC50 of 97 nM.
`Cc1ncnc(OC2CN(C(=O)N3N=CC[C@H]3c3cc(F)cc(F)c3)C2)c1C` [Example 3.3, (S)-(5-(3,5-difluorophenyl)-4,5-dihydro-1H-pyrazol-1-yl)(3-((5,6-dimethylpyrimidin-4-yl)oxy)azetidin-1-yl)methanone, TFA salt]: a half-maximal effect (EC50) was put at 75.9 nM.
`CSc1nc(C)cc(OC2CN(C(=O)N3N=CC[C@H]3c3cc(F)cc(F)c3)C2)n1` [Example 3.4, (S)-(5-(3,5-difluorophenyl)-4,5-dihydro-1H-pyrazol-1-yl)(3-((6-methyl-2-(methylthio)pyrimidin-4-yl)oxy)azetidin-1-yl)methanone, TFA salt] showed an EC50 of 38.1 nM.
Consider `Cc1csc(OC2CN(C(=O)N3N=CC[C@H]3c3cc(F)cc(F)c3)C2)n1` [Example 3.5, (S)-(5-(3,5-difluorophenyl)-4,5-dihydro-1H-pyrazol-1-yl)(3-((4-methylthiazol-2-yl)oxy)azetidin-1-yl)methanone, TFA salt], for which the EC50 stood at 8.9 nM.
On to `O=C(N1CC(Oc2nc3ccncc3s2)C1)N1N=CC[C@H]1c1cc(F)cc(F)c1` [Example 3.6, (S)-(5-(3,5-difluorophenyl)-4,5-dihydro-1H-pyrazol-1-yl)(3-(thiazolo[5,4-c]pyridin-2-yloxy)azetidin-1-yl)methanone, TFA salt], for which the response was half-maximal at 18.2 nM (EC50).
Under `Cc1nc(OC2CN(C(=O)N3N=CC[C@H]3c3cc(F)cc(F)c3)C2)cc(C(C)(C)O)n1` [Example 3.7, (S)-(5-(3,5-difluorophenyl)-4,5-dihydro-1H-pyrazol-1-yl)(3-((6-(2-hydroxypropan-2-yl)-2-methylpyrimidin-4-yl)oxy)azetidin-1-yl)methanone, TFA salt] stands 1490 nM; under `O=C(N1CC(Oc2ncc(Cn3cccn3)s2)C1)N1N=CC[C@H]1c1cc(F)cc(F)c1` [Example 3.8, (S)-(3-((5-((1H-pyrazol-1-yl)methyl)thiazol-2-yl)oxy)azetidin-1-yl)(5-(3,5-difluorophenyl)-4,5-dihydro-1H-pyrazol-1-yl)methanone, TFA salt], 105 nM.
